According to patent US20240264161A1, “BIOMARKERS AND USES THEREOF” (MetaCurUm Biotech AB, priority 2021, published 2024):
One block for each molecule: values may come before it.

Legend:
[1] = system: PC-3U cells; experiment: Confocal imaging of abscission (GFP-VPS4A and β-tubulin); assay type: cell-based, human
Protocol: (A, B and D) Immunofluorescence experiments showing co-localization of AURKB (green) and TβRI (V22, red) during mitosis in human prostate cancer (PC-3U) (A) and human neuroblastoma (KELLY) (B) cells, and of TβRI (V22, green) and β-tubulin (red) throughout the PC-3U mitosis (D). Scale bar, 20 μm. (C) Localization of survivin (green) and TβRI (V22, red) in PC-3U cells throughout the mitosis (E) Decreased co-localization of TβRI and AURKB after treatment of PC-3U cells on ice for 30 min. Scale bar, 20 μm. (F) Representative confocal images showing the localization of green fluorescent protein (GFP)-VPS4A (green) and β-tubulin (red) with or without knockdown of TβRI by siRNA, or treatment with the TβRI kinase inhibitor SB505124. Scale bar, 5 μm. (G) Multinucleated cells were counted after knockdown of TGFBR1. Data presented as mean±SEM, N=3 [Student's t-test, *P<0.05]. Scale bar, 20 μm. […] The gene sets are ordered by normalized enrichment score. Color indicates the adjusted p-value. (I) GSEA plots of the hallmark mitotic spindle (left) and G2/M checkpoint (right) gene sets show their strong association with TGFBR1-correlated genes. […] (J) PC-3U cells were treated or not with SB505124 and TGFβ for 30 minutes, after which cell lysates were analyzed by immunoblotting. […]

[2] = system: TβRI; experiment: Immunoblotting of AURKB phosphorylation after TβRI kinase inhibition; assay type: cell-based, human; details: PC-3U cells treated or not with SB505124 and TGFβ for 30 minutes
Protocol: (A, B and D) Immunofluorescence experiments showing co-localization of AURKB (green) and TβRI (V22, red) during mitosis in human prostate cancer (PC-3U) (A) and human neuroblastoma (KELLY) (B) cells, and of TβRI (V22, green) and β-tubulin (red) throughout the PC-3U mitosis (D). Scale bar, 20 μm. (C) Localization of survivin (green) and TβRI (V22, red) in PC-3U cells throughout the mitosis (E) Decreased co-localization of TβRI and AURKB after treatment of PC-3U cells on ice for 30 min. Scale bar, 20 μm. (F) Representative confocal images showing the localization of green fluorescent protein (GFP)-VPS4A (green) and β-tubulin (red) with or without knockdown of TβRI by siRNA, or treatment with the TβRI kinase inhibitor SB505124. Scale bar, 5 μm. (G) Multinucleated cells were counted after knockdown of TGFBR1. Data presented as mean±SEM, N=3 [Student's t-test, *P<0.05]. Scale bar, 20 μm. […] (J) PC-3U cells were treated or not with SB505124 and TGFβ for 30 minutes, after which cell lysates were analyzed by immunoblotting. […]
Cells were washed twice with ice-cold phosphate-buffered saline (PBS) and lysed in ice-cold lysis buffer [150 mM NaCl, 50 mM Tris, pH 8.0, 0.5% (v/v) deoxycholate, 1% (v/v) NP40, 10% (v/v) glycerol and protease inhibitors]. After centrifugation, the supernatants were collected, and protein concentrations determined using the BCA Protein Assay Kit (ThermoFisher Scientific). […]

[3] = molecular target: T1, glutathione-S-transferase (GST)-TβRI, P36897
T1 chain: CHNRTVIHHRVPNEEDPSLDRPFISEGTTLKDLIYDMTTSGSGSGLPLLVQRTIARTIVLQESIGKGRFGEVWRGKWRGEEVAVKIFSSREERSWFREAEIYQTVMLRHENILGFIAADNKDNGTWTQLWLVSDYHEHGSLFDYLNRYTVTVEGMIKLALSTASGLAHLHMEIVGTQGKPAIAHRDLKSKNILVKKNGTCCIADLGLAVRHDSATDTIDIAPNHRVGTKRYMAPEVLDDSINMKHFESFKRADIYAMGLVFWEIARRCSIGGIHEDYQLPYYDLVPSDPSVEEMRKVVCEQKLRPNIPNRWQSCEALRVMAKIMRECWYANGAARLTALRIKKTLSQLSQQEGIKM

[4] = molecular target: T2, Flag-tagged wild-type AURKB
T2 chain: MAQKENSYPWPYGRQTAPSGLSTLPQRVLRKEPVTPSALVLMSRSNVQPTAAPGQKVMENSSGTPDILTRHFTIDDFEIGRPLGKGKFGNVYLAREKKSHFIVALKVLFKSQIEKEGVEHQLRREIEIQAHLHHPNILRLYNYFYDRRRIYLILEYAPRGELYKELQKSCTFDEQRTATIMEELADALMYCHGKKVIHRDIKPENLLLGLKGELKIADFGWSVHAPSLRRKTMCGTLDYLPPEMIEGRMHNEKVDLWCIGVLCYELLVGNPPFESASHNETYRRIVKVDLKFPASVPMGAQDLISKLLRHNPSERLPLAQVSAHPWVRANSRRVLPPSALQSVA

AURKB phosphorylation [2]: suppressed AURKB phosphorylation
Molecule: Cc1cccc(-c2[nH]c(C(C)(C)C)nc2-c2ccc3c(c2)OCO3)n1 [SB505124]
effect on abscission [1]: did not affect the abscission

B1: His-AURKB (protein)
chain: MAQKENSYPWPYGRQTAPSGLSTLPQRVLRKEPVTPSALVLMSRSNVQPTAAPGQKVMENSSGTPDILTRHFTIDDFEIGRPLGKGKFGNVYLAREKKSHFIVALKVLFKSQIEKEGVEHQLRREIEIQAHLHHPNILRLYNYFYDRRRIYLILEYAPRGELYKELQKSCTFDEQRTATIMEELADALMYCHGKKVIHRDIKPENLLLGLKGELKIADFGWSVHAPSLRRKTMCGTLDYLPPEMIEGRMHNEKVDLWCIGVLCYELLVGNPPFESASHNETYRRIVKVDLKFPASVPMGAQDLISKLLRHNPSERLPLAQVSAHPWVRANSRRVLPPSALQSVA
in vitro kinase assay (phosphorylation of GST-TβRI) [3]: His-AURKB phosphorylated glutathione-S-transferase (GST)-TβRI in an in vitro kinase assay

B2: TNF receptor associated factor 6 (TRAF6), endogenous in PC-3U cells (protein)
chain: MSLLNCENSCGSSQSESDCCVAMASSCSAVTKDDSVGGTASTGNLSSSFMEEIQGYDVEFDPPLESKYECPICLMALREAVQTPCGHRFCKACIIKSIRDAGHKCPVDNEILLENQLFPDNFAKREILSLMVKCPNEGCLHKMELRHLEDHQAHCEFALMDCPQCQRPFQKFHINIHILKDCPRRQVSCDNCAASMAFEDKEIHDQNCPLANVICEYCNTILIREQMPNHYDLDCPTAPIPCTFSTFGCHEKMQRNHLARHLQENTQSHMRMLAQAVHSLSVIPDSGYISEVRNFQETIHQLEGRLVRQDHQIRELTAKMETQSMYVSELKRTIRTLEDKVAEIEAQQCNGIYIWKIGNFGMHLKCQEEEKPVVIHSPGFYTGKPGYKLCMRLHLQLPTAQRCANYISLFVHTMQGEYDSHLPWPFQGTIRLTILDQSEAPVRQNHEEIMDAKPELLAFQRPTIPRNPKGFGYVTFMHLEALRQRTFIKDDTLLVRCEVSTRFDMGSLRREGFQPRSTDAGV
polyubiquitination of AURKB (Flag IP, HA-ubiquitin immunoblot, with or without TRAF6 siRNA) [4]: Knockdown of TRAF6 by siRNA in PC-3U cells suppressed polyubiquitination of AURKB
